The nature of this test: Inhibition of SARS-CoV-2 wild type papain-like protease (PLpro) C111S mutant extracted from Escherichia coli using LKGG-AMC as substrate incubated for 60 mins by fluorescence based analysis. On the set-up: species or system Severe acute respiratory syndrome coronavirus 2.

In turn, `CCC(=O)Nc1ccc(C)c(C(=O)N[C@H](C)c2cccc3ccccc23)c1` registered an IC50 of 6.4 µM.

The compound `Cc1ccc(NC(=O)NC(N)=O)cc1C(=O)N[C@H](C)c1cccc2ccccc12` displayed a 50% inhibitory concentration (IC50) of 5.1 µM.

As a reminder, the IC50 is the concentration needed to halve the response being measured. Lower therefore signals greater potency.

Source of the values: ChEMBL document CHEMBL6092147, “Design of inhibitors of SARS-CoV-2 papain-like protease deriving from GRL0617: Structure-activity relationships” (Bioorg Med Chem, 2024).
